According to PubChem BioAssay AID330 (DTP/NCI, 2004):
Where “and” joins values, the source holds several entries; their conditions need not be identical. Equal entries are not always repeated. Inconclusive results and toxic doses are left out. Rule for the calls: active = survival T/C of 150% or more; inactive = T/C below 125% in these data.

System: P388 leukemia ip, CD2F1 mice, survival T/C
Experiment: NCI In Vivo Anticancer Drug Screen. Data for tumor model P388 Leukemia (intraperitoneal) in CD2F1 (CDF1) mice
Conditions: endpoint: median survival time, higher = longer survival
Procedure, shortened: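 Mice carrying the transplanted tumor received test compound or vehicle. Survival was recorded in each group, and the value is the treated-group measurement divided by that of the vehicle-treated control group.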

[1] = dose: 12.5 mg/kg/injection, schedule: Q01DX009 (ip), vehicle: saline with Tween-80
[2] = dose: 25.0 mg/kg/injection, schedule: Q01DX009 (ip), vehicle: saline with Tween-80
[3] = dose: 100.0 mg/kg/injection, schedule: Q04DX003 (ip), vehicle: saline
[4] = dose: 200.0 mg/kg/injection, schedule: Q04DX003 (ip), vehicle: saline
[5] = dose: 400.0 mg/kg/injection, schedule: Q04DX003 (ip), vehicle: saline

Measured: T/C

CCN(CC)c1ccc(/C=C/c2ccnc3ccccc23)cc1
inactive: [1] 118 % of control | dose: 12.5 mg/kg/injection, schedule: Q04DX003 (ip), vehicle: saline sonified 100 % of control | dose: 12.5 mg/kg/injection, schedule: Q04DX003 (ip), vehicle: saline with Tween-80 90 % of control | dose: 20.0 mg/kg/injection, schedule: Q04DX003 (ip), vehicle: saline 113 % of control | [2] 104 % of control | dose: 25.0 mg/kg/injection, schedule: Q04DX003 (ip), vehicle: saline sonified 104 % of control | dose: 25.0 mg/kg/injection, schedule: Q04DX003 (ip), vehicle: saline with Tween-80 100 % of control | dose: 40.0 mg/kg/injection, schedule: Q04DX003 (ip), vehicle: saline 118 % of control | dose: 50.0 mg/kg/injection, schedule: Q04DX003 (ip), vehicle: saline sonified 109 % of control | dose: 50.0 mg/kg/injection, schedule: Q04DX003 (ip), vehicle: saline with Tween-80 109 % of control

CCn1cnc(=O)[nH]c1=O
inactive: dose: 50.0 mg/kg/injection, schedule: Q01DX005 (ip), vehicle: Klucel (hydroxypropylcellulose) (HPC) 102 % of control | dose: 100.0 mg/kg/injection, schedule: Q01DX005 (ip), vehicle: Klucel (hydroxypropylcellulose) (HPC) 96 % of control | dose: 200.0 mg/kg/injection, schedule: Q01DX005 (ip), vehicle: Klucel (hydroxypropylcellulose) (HPC) 97 % of control

CC(C)(C)C=O
inactive: [3] 100 % of control | [4] 100 % of control | [5] 100 % of control

O/N=c1\cc(-c2ccccc2)oc2ccccc12
inactive: dose: 16.7 mg/kg/injection, schedule: Q01DX009 (ip), vehicle: saline with Tween-80 97 % of control | [2] 102 % of control | dose: 37.5 mg/kg/injection, schedule: Q01DX009 (ip), vehicle: saline with Tween-80 100 % of control

CCCCN(C)C(=S)N/N=C(\C)c1ccccn1
inactive: dose: 6.25 mg/kg/injection, schedule: Q01DX009 (ip), vehicle: saline with Tween-80 98 % of control | [1] 101 % of control | [2] 111 % of control

CC(C)c1ccc(/C=C/c2ccc(N(C)C)cc2)cc1
inactive: dose: 50.0 mg/kg/injection, schedule: Q01DX009 (sc), vehicle: olive oil, sesame oil, peanut oil 100 % of control | dose: 100.0 mg/kg/injection, schedule: Q01DX009 (sc), vehicle: olive oil, sesame oil, peanut oil 100 % of control | dose: 200.0 mg/kg/injection, schedule: Q01DX009 (sc), vehicle: olive oil, sesame oil, peanut oil 97 % of control

COc1cc2c3cc1Oc1c(OC)c(OC)cc4c1[C@@H](Cc1ccc(O)c(c1)Oc1ccc(cc1)C[C@@H]3N(C)CC2)N(C)CC4
inactive: dose: 60.0 mg/kg/injection, schedule: Q01DX005 (ip), vehicle: Klucel (hydroxypropylcellulose) (HPC) 102 % of control and 106 % of control | dose: 120.0 mg/kg/injection, schedule: Q01DX005 (ip), vehicle: Klucel (hydroxypropylcellulose) (HPC) 118 % of control and 113 % of control

CC(=O)Cc1c(-c2ccccc2)nc(=S)[nH]c1C
inactive: dose: 50.0 mg/kg/injection, schedule: Q01DX009 (ip), vehicle: saline 100 % of control and 97 % of control | dose: 100.0 mg/kg/injection, schedule: Q01DX009 (ip), vehicle: saline 91 % of control and 92 % of control | dose: 200.0 mg/kg/injection, schedule: Q01DX009 (ip), vehicle: saline 100 % of control and 94 % of control and 96 % of control

O=C(c1ccccc1)C1Nc2ccc(Cl)cc2C2C=CCC12 (stereo not given)
inactive: dose: 60.0 mg/kg/injection, schedule: Q01DX005 (ip), vehicle: saline with Tween-80 102 % of control | dose: 120.0 mg/kg/injection, schedule: Q01DX005 (ip), vehicle: saline with Tween-80 94 % of control | dose: 240.0 mg/kg/injection, schedule: Q01DX005 (ip), vehicle: saline with Tween-80 93 % of control

O=NN(C(=O)NC1CC1)C1CCCC1
inactive: dose: 25.0 mg/kg/injection, schedule: Q01DX001 (ip), vehicle: distilled water + Tween-80 103 % of control | dose: 50.0 mg/kg/injection, schedule: Q01DX001 (ip), vehicle: distilled water + Tween-80 109 % of control | dose: 100.0 mg/kg/injection, schedule: Q01DX001 (ip), vehicle: distilled water + Tween-80 102 % of control | dose: 200.0 mg/kg/injection, schedule: Q01DX001 (ip), vehicle: distilled water + Tween-80 111 % of control | dose: 400.0 mg/kg/injection, schedule: Q01DX001 (ip), vehicle: distilled water + Tween-80 102 % of control

OCc1ccc(Cl)cc1O
inactive: dose: 12.5 mg/kg/injection, schedule: Q01DX009 (ip), vehicle: distilled water + Tween-80 100 % of control | dose: 25.0 mg/kg/injection, schedule: Q01DX009 (ip), vehicle: distilled water + Tween-80 100 % of control | dose: 50.0 mg/kg/injection, schedule: Q01DX009 (ip), vehicle: distilled water + Tween-80 105 % of control | dose: 100.0 mg/kg/injection, schedule: Q01DX009 (ip), vehicle: distilled water + Tween-80 107 % of control | dose: 200.0 mg/kg/injection, schedule: Q01DX009 (ip), vehicle: distilled water + Tween-80 116 % of control

CCC1(O)CC2CN(CCc3c([nH]c4ccccc34)C(C(=O)OC)(c3cc4c(cc3OC)N(C)C3C(O)(C(N)=O)C(O)C5(CC)C=CCN6CCC43C65)C2)C1 (stereo not given) (tested in a mixture with another compound)
active: dose: 0.11 mg/kg/injection, schedule: Q04DX003 (ip), vehicle: clinical formulation 158 % of control | dose: 0.13 mg/kg/injection, schedule: Q04DX003 (ip), vehicle: saline 161 % of control | dose: 0.18 mg/kg/injection, schedule: Q04DX003 (ip), vehicle: clinical formulation 161 % of control | dose: 0.25 mg/kg/injection, schedule: Q04DX003 (ip), vehicle: water 158 % of control | dose: 0.3 mg/kg/injection, schedule: Q04DX003 (ip), vehicle: clinical formulation 180 % of control | dose: 0.5 mg/kg/injection, schedule: Q04DX003 (ip), vehicle: clinical formulation 179 % of control | dose: 0.5 mg/kg/injection, schedule: Q04DX003 (ip), vehicle: saline 203 % of control and 216 % of control | dose: 0.5 mg/kg/injection, schedule: Q04DX003 (ip), vehicle: water 163 % of control | dose: 0.67 mg/kg/injection, schedule: Q04DX003 (ip), vehicle: saline 177 % of control | dose: 0.67 mg/kg/injection, schedule: Q04DX003 (ip), vehicle: water 202 % of control | dose: 0.83 mg/kg/injection, schedule: Q04DX003 (ip), vehicle: clinical formulation 215 % of control | dose: 1.0 mg/kg/injection, schedule: Q04DX003 (ip), vehicle: saline 189 % of control and 191 % of control | dose: 1.0 mg/kg/injection, schedule: Q04DX003 (ip), vehicle: water 188 % of control and 200 % of control | dose: 1.08 mg/kg/injection, schedule: Q04DX003 (ip), vehicle: clinical formulation 170 % of control | dose: 1.3 mg/kg/injection, schedule: Q04DX003 (ip), vehicle: water 222 % of control | dose: 1.5 mg/kg/injection, schedule: Q04DX003 (ip), vehicle: saline 184 % of control | dose: 1.5 mg/kg/injection, schedule: Q04DX003 (ip), vehicle: water 268 % of control | dose: 1.8 mg/kg/injection, schedule: Q04DX003 (ip), vehicle: clinical formulation 173 % of control | dose: 2.0 mg/kg/injection, schedule: Q04DX003 (ip), vehicle: water 186 % of control and 283 % of control
inactive: dose: 0.06 mg/kg/injection, schedule: Q01DX009 (ip), vehicle: water 107 % of control | dose: 0.22 mg/kg/injection, schedule: Q01DX009 (ip), vehicle: water 123 % of control | dose: 0.6 mg/kg/injection, schedule: Q01DX009 (ip), vehicle: water 97 % of control | dose: 3.0 mg/kg/injection, schedule: Q04DX003 (ip), vehicle: clinical formulation 95 % of control | dose: 3.0 mg/kg/injection, schedule: Q04DX003 (ip), vehicle: water 123 % of control
100 % of control and 223 % of control: dose: 1.0 mg/kg/injection, schedule: Q01DX009 (ip), vehicle: water

O=C(O)c1c[n+]([O-])ccc1OCc1ccccc1
inactive: [3] 100 % of control | [4] 98 % of control | [5] 94 % of control

CCCCOC(=O)N(CCCl)N=O
inactive: dose: 1.25 mg/kg/injection, schedule: Q01DX009 (ip), vehicle: saline with Tween-80 119 % of control | dose: 2.5 mg/kg/injection, schedule: Q01DX009 (ip), vehicle: saline with Tween-80 108 % of control | dose: 5.0 mg/kg/injection, schedule: Q01DX009 (ip), vehicle: saline with Tween-80 98 % of control

[Co+3].[NH-]CC[NH-].[NH-]CC[NH-].[NH-]CC[SH2+].[O-][Cl+3]([O-])([O-])O
inactive: [3] 100 % of control | [4] 100 % of control | [5] 102 % of control | dose: 800.0 mg/kg/injection, schedule: Q04DX003 (ip), vehicle: saline 99 % of control

Cc1cc(=O)n2c(n1)Nc1ccc(Cl)cc1C2
inactive: dose: 50.0 mg/kg/injection, schedule: Q01DX009 (ip), vehicle: saline with Tween-80 100 % of control | dose: 100.0 mg/kg/injection, schedule: Q01DX009 (ip), vehicle: saline with Tween-80 98 % of control
